Measured values from patent EP1060162B1, “URETHANES DERIVED FROM AZACYCLOALKANES, THIO AND DITHIO ANALOGUES, PRODUCTION AND USE THEREOF AS 2,3 EPOXYSQUALENE LANESTEROL CYCLASE INHIBITORS” (Boehringer Ingelheim Pharma KG, priority 1997, dated 1999).
Structures can show the parent of a compound that is named as a salt. Where two headings read alike, the source gives them in different places.

How the values were obtained:
[1] = tested on: 2,3-Epoxisqualen-Lanosterol-Cyclase; experiment: In-vivo effect in the rat after oral administration: 2,3-epoxysqualene level in the liver; set-up: species or system Ratte
Description: II. Messung der in-vivo Wirkung an der Ratte nach oraler Gabe
Die Inhibierung des Enzyms 2,3-Epoxisqualen-Lanosterol-Cyclase bewirkt eine Erhöhung der 2,3-Epoxisqualenspiegel in Leber und Plasma. Die Menge an gebildetem 2,3-Epoxisqualen dient daher als direktes Maß für die Wirkstärke am Ganztier.Die Bestimmung wurde nach der in J. Lipid. Res. 38, 564-575, [1997] beschriebenen Methode nach t = 3 bzw. 8 Stunden nach Substanzgabe mit Konzentrationen von c = 0.01, 0.03, 0.1, 0.3 und 1.0 mg/kg durchgeführt. In der folgenden Tabelle 3 sind beispielhaft die Ergebnisse für die vorstehend erwähnten Substanzen A, B, C, D, E, G, H, I und K angegeben.

[2] = biological target: T1, ^14C-Acetat-Einbau in die mit Digitonin fällbaren Steroide (Homo sapiens, UniProt P48449); experiment: Inhibition of 14C-acetate incorporation into digitonin-precipitable steroids; type: cell-based; conditions: read-out: Prozentwerte, um die die Verbindungen den ^14C-Acetat-Einbau hemmen
T1 sequence (P48449 2-732): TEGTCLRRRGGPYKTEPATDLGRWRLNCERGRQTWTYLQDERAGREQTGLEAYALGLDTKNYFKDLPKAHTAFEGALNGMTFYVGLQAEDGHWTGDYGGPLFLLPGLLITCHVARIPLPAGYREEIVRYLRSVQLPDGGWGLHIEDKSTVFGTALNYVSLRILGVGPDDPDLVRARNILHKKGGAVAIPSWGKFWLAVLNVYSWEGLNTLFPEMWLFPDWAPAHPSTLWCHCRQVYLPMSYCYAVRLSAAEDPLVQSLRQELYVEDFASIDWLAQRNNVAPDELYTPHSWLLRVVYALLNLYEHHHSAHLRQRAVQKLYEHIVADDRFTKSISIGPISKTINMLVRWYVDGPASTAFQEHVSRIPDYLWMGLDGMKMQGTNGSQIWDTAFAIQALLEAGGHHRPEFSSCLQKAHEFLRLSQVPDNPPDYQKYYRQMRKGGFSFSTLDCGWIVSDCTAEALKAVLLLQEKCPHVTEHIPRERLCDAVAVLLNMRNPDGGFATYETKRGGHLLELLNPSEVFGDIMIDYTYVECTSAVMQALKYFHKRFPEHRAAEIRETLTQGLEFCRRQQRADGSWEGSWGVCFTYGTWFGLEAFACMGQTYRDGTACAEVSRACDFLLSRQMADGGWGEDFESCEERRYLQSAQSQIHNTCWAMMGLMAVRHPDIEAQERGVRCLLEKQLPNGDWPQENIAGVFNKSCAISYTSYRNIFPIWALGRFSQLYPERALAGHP
From the text: I. Messung der Hemmung des ^14C-Acetat-Einbaus in die mit Digitonin fällbaren Steroide:
Die Untersuchung der Hemmwirkung wurde nach der in J. Lipid. Res. 37, 148-157 [1996] beschriebenen Methode bei Testkonzentrationen von 10^-8 und 10^-9 Mol/l durchgeführt.
Die Prozentwerte, um die obigen Verbindungen den ^14C-Acetat-Einbau hemmen, sind in Tabelle 1 angegeben.

[3] = tested on: Trich. mentagrophytes ATCC 9129; experiment: Fungistatic effect, serial dilution test (microtitre system); type: cell-based; conditions: Trichophyton mentagrophytes
Description: (§1) IV. Bestimmung der fungistatischen Wirkung
(§2) Die fungistatische Wirkung wurde über den Reihenverdünnungstest (Mikrotitersystem) bestimmt. Als Nährmedium diente Sabouraud-Bouillon. Das Inoculum betrug ca. 10^4 bis 10^5 KBE/ml (KBE = koloniebildende Einheiten); die Bebrütungszeit betrug 2 bis 4 Tage bei 26°C.
(§3) Es wurde die niedrigste Konzentration, die sichtbares Wachstum nicht mehr zuließ (minimale Hemmkonzentration MHK), bestimmt.
(§4) Geprüft wurden die vorstehend erwähnten Verbindungen A, B, D, E, F, H, I, K, L und M. Die Ergebnisse sind in der folgenden Tabelle 5 zusammengefaßt. Die MHK ist in µg/ml angegeben.

[4] = tested on: Cand. albicans ATCC 10231; experiment: as above; type: cell-based; conditions: Candida albicans
Description: as §1, §2, §3, §4

[5] = tested on: Sacch. carlsbergensis ATCC 9080; experiment: as above; type: cell-based; conditions: Saccharomyces pastorianus
Description: as §1, §2, §3, §4

Asp. niger ATCC 16404 = experiment: as above; type: cell-based; conditions: Aspergillus niger
Description: as §1, §2, §3, §4

Rhod. rubra 49 = experiment: as above; type: cell-based; conditions: read-out: MHK
Description: as §1, §2, §3, §4

Pen.notatum CBS 19746 = experiment: as above; type: cell-based; conditions: Penicillium chrysogenum
Description: as §1, §2, §3, §4

[6] = Lipid lowering in the normolipaemic golden hamster; type: in vivo, Goldhamster; conditions: Dosis 57.5 mg/kg/Tag; compared with control group fed without test substance
From the text: III. Lipidsenkung am normolipämischen Goldhamster.
Diese Bestimmung wurde nach der in J. Lipid. Res. 38, 564-575, (1997) beschriebenen Methode durchgeführt. Am Ende des Versuchs wurde Gesamtcholesterol, β-Lipoprotein-Cholesterol sowie HDL-Cholesterol bestimmt und mit den Werten einer ohne Testsubstanz gefütterten Kontrollgruppe verglichen.

[7] = ATCC9129, Trich., Sabouraud-Bouillon, 2 bis 4 Tage bei 26°C, read-out: MHK
[8] = ATCC10231, Cand., Sabouraud-Bouillon, 2 bis 4 Tage bei 26°C, read-out: MHK
[9] = ATCC9080, Sacc., Sabouraud-Bouillon, 2 bis 4 Tage bei 26°C, read-out: MHK
[10] = ATCC16404, Asp., Sabouraud-Bouillon, 2 bis 4 Tage bei 26°C, read-out: MHK
[11] = Rhod., Sabouraud-Bouillon, 2 bis 4 Tage bei 26°C
[12] = CBS19746, Pen., Sabouraud-Bouillon, 2 bis 4 Tage bei 26°C, read-out: MHK

inhibition at 0.01 µM ([2]; Testkonzentration 10^-8 Mol/l) | inhibition at 0.001 µM ([2]; Testkonzentration 10^-9 Mol/l) | MIC [3, 7] | MIC [4, 8] | MIC [5, 9] | MIC (Asp. niger ATCC 16404; [10]) | MIC (Rhod. rubra 49; [11]) | MIC (Pen.notatum CBS 19746; [12]) | Compound | 2,3-Epoxysqualen-Konzentration in der Leber (Ratte) ([1]; c = 1.0 mg/kg, t = 3 h) | 2,3-Epoxysqualen-Konzentration in der Leber (Ratte) ([1]; c = 1.0 mg/kg, t = 8 h) | 2,3-Epoxysqualen-Konzentration in der Leber (Ratte) ([1]; c = 0.1 mg/kg, t = 3 h) | 2,3-Epoxysqualen-Konzentration in der Leber (Ratte) ([1]; c = 0.1 mg/kg, t = 8 h) | also measured
85% | 47% | 2 µg/mL | 64 µg/mL | 32 µg/mL | 32 µg/mL | 16 µg/mL | 8 µg/mL | CN(C)Cc1ccc(C(=O)C2CCN(C(=S)SCc3ccccc3)CC2)cc1.Cl [B, N-(Benzylthio) thiocarbonyl-4-[4-(dimethylaminomethyl)benzoyl]piperidin-hydrochlorid] | 39.2 µg/g | 42.0 µg/g |  |  | 2,3-Epoxysqualen-Konzentration in der Leber (Ratte) ([1]; c = 0.3 mg/kg, t = 3 h): 4.5 µg/g; 2,3-Epoxysqualen-Konzentration in der Leber (Ratte) ([1]; c = 0.3 mg/kg, t = 8 h): 5.8 µg/g
78% | 57% |  |  |  |  |  |  | CN(C)Cc1ccc(SC2CCN(C(=O)OCc3ccccc3)CC2)cc1.Cl [C, N-Benzyloxycarbonyl-4-[4-(dimethylaminomethyl)phenylthio]-piperidin-hydrochlorid] | 3.8 µg/g | 2.0 µg/g | 0.5 µg/g | 1.3 µg/g | 2,3-Epoxysqualen-Konzentration in der Leber (Ratte) ([1]; c = 0.01 mg/kg, t = 3 h): 0.6 µg/g; 2,3-Epoxysqualen-Konzentration in der Leber (Ratte) ([1]; c = 0.01 mg/kg, t = 8 h): 3.0 µg/g; 2,3-Epoxysqualen-Konzentration in der Leber (Ratte) ([1]; c = 0.3 mg/kg, t = 3 h): 0.5 µg/g; 2,3-Epoxysqualen-Konzentration in der Leber (Ratte) ([1]; c = 0.3 mg/kg, t = 8 h): 1.8 µg/g
 |  |  |  |  |  |  |  | CN(C)Cc1ccc(SC2CCN(C(=O)Oc3ccc(Cl)cc3)CC2)cc1 [D, N-(4-Chlorphenoxy)carbonyl-4-[4-(dimethylaminomethyl)-phenylthio]piperidin-hydrochlorid] |  |  | 1.4 µg/g | 1.8 µg/g | 2,3-Epoxysqualen-Konzentration in der Leber (Ratte) ([1]; c = 0.01 mg/kg, t = 3 h): 1.3 µg/g; 2,3-Epoxysqualen-Konzentration in der Leber (Ratte) ([1]; c = 0.01 mg/kg, t = 8 h): 1.0 µg/g; inhibition at 0.001 µM [2]: 55%; inhibition at 0.01 µM [2]: 86%; MIC ([3]; ATCC9129, read-out: MHK): 16 µg/mL; MIC ([4]; ATCC10231, read-out: MHK): 64 µg/mL; MIC ([5]; ATCC9080, read-out: MHK): 128 µg/mL; MIC (Asp. niger ATCC 16404; ATCC16404, read-out: MHK): 256 µg/mL; MIC (Rhod. rubra 49): 64 µg/mL; MIC (Pen.notatum CBS 19746; CBS19746, read-out: MHK): 128 µg/mL
87% | 47% | 1 µg/mL | 16 µg/mL | 16 µg/mL | 8 µg/mL | 4 µg/mL | 1 µg/mL | CN(C)Cc1ccc(CC2CCN(C(=S)SCc3ccccc3)CC2)cc1.Cl [E, N-(Benzylthio)thiocarbonyl-4-[4-(dimethylaminomethyl)-benzyl]piperidin-hydrochlorid] |  |  | 5.6 µg/g | 4.4 µg/g | 2,3-Epoxysqualen-Konzentration in der Leber (Ratte) ([1]; c = 0.01 mg/kg, t = 3 h): 0.9 µg/g; 2,3-Epoxysqualen-Konzentration in der Leber (Ratte) ([1]; c = 0.01 mg/kg, t = 8 h): 1.0 µg/g
84% | 45% | 2 µg/mL | 16 µg/mL | 16 µg/mL | 8 µg/mL | 4 µg/mL | 4 µg/mL | CN(C)Cc1ccc(C=C2CCN(C(=S)SCc3ccccc3)CC2)cc1.Cl [F, N-(Benzylthio)thiocarbonyl-4-[4-(dimethylaminomethyl)-benzyliden]piperidin-hydrochlorid] |  |  |  |  | 
83% | 56% |  |  |  |  |  |  | CN(C)Cc1ccc(CC2CCN(C(=S)Oc3ccc(Cl)cc3)CC2)cc1 [G, N-(4-Chlorphenoxy)thiocarbonyl-4-[4-(dimethylaminomethyl)-benzyl]piperidin-hydrochlorid] | 87.4 µg/g | 134.2 µg/g | 10.3 µg/g | 11.5 µg/g | 
88% | 64% | 1 µg/mL | 32 µg/mL | 64 µg/mL | 64 µg/mL | 8 µg/mL | 32 µg/mL | Cc1ccc(OC(=S)N2CCC(Cc3ccc(CN(C)C)cc3)CC2)cc1.Cl [L, 4-[4-(Dimethylaminomethyl)benzyl] -N-(4-methylphenoxy) - thiocarbonylpiperidin-hydrochlorid] |  |  |  |  | 
 |  |  |  |  |  |  |  | CN(C)Cc1ccc(CC2CCN(C(=O)Oc3ccc(F)cc3)CC2)cc1 [M, 4-[4-(Dimethylaminomethyl)benzyl]-N-(4-fluorphenoxy)-carbonylpiperidin-hydrochlorid] |  |  |  |  | inhibition at 0.001 µM [2]: 59%; inhibition at 0.01 µM [2]: 84%; Gesamtcholesterol [6]: -26.8%; HDL-Cholesterol [6]: -20.4%; β-Lipoprotein-Cholesterol [6]: -31.6%; MIC ([3]; ATCC9129, read-out: MHK): 2 µg/mL; MIC ([4]; ATCC10231, read-out: MHK): 128 µg/mL; MIC ([5]; ATCC9080, read-out: MHK): 512 µg/mL; MIC (Asp. niger ATCC 16404; ATCC16404, read-out: MHK): 64 µg/mL; MIC (Rhod. rubra 49): 32 µg/mL; MIC (Pen.notatum CBS 19746; CBS19746, read-out: MHK): 512 µg/mL
59% | 23% |  |  |  |  |  |  | CN(C)Cc1ccc([C@H]2CC[C@H](N(C)C(=O)c3ccc(Cl)cc3)CC2)cc1 [V, reference compound] |  |  |  |  | 
85% | 53% | 1 µg/mL | 16 µg/mL | 8 µg/mL | 8 µg/mL | 16 µg/mL | 4 µg/mL | CN(C)Cc1ccc(SC2CCN(C(=S)SCc3ccccc3)CC2)cc1.Cl [Verbindung A, N-(Benzylthio)thiocarbonyl-4-[4-(dimethylaminomethyl)-phenylthio]piperidin-hydrochlorid] | 9.3 µg/g | 9.8 µg/g |  |  | 2,3-Epoxysqualen-Konzentration in der Leber (Ratte) ([1]; c = 0.3 mg/kg, t = 3 h): 2.0 µg/g; 2,3-Epoxysqualen-Konzentration in der Leber (Ratte) ([1]; c = 0.3 mg/kg, t = 8 h): 1.2 µg/g
72% | 21% |  |  |  |  |  |  | Cc1ccc(CC(=O)O[C@H]2CC[C@H](c3ccc(CN(C)C)cc3)CC2)cc1 [W, trans-O-(p-Tolylacetyl)-4-(4-dimethylaminomethylphenyl)-cyclohexanol, reference compound] |  |  |  |  | 
